Measurements reported in patent US20230364079A1, “COMPOUND AS BRAIN-PERMEABLE BTK OR HER2 INHIBITOR, PREPARATION METHOD THEREFOR, AND USE THEREOF” (CHENGDU HYPERWAY PHARMACEUTICALS CO., LTD., priority 2020, published 2023).
Where a name gives a salt, the structure may show the parent alone. Read-outs that look alike come from different tables or passages of the source.

Experiments:
[1] = Pharmacokinetic test, oral, SD rats; format: in vivo; conditions: oral 10 mg/kg, plasma; for AUC(0-inf) / Cmax / half-life: rat; for Cmax: read-out: Cmax; for half-life: read-out: T½ (converted)
Description: Each test compound was administered orally (10 mg/kg, 3 rats in each group) to SD rats for pharmacokinetic study. […] Animals were fasted overnight before oral administration, and fed again after 4 h of administration. […] At each collection time point, 3 whole blood samples were collected at a the collection volume of about 0.2-0.3 mL. […] The collected plasma was stored at -20° C. before analysis. 20 µL of plasma sample was added into a 1.6 mL 96-well deep-well plate, added with 200 µL of working internal standard solution (the same volume of vehicle was added to the blank instead of internal standard), vortexed for 1 min, and centrifuged at 5800 rpm for 10 min. 100 µL of the supernatant was added to a 96-well injection plate for LC-MS/MS analysis.

[2] = tested on: TMD8 mouse subcutaneous xenograft tumor; experiment: TMD8 pharmacodynamic model test (mouse subcutaneous xenograft tumor); format: in vivo; conditions: same dose of 10 mg/kg, FIG. 1
Description: Test Example 7: TMD8 Pharmacodynamic Model Test
Human diffuse large B-cell lymphoma TMD8 cells were monolayer-cultured in vitro in RPMI1640 medium with 10% fetal bovine serum, 100 U/mL penicillin and 100 µg/mL streptomycin, in a 37° C., 5% CO2 incubator. Routine digestion with trypsin-EDTA was performed twice a week for passaging. When the cell density was 80%-90% and the number reached the requirement, cells were harvested, counted and inoculated. 0.2 ml (1×10^7 cells) of TMD8 cells (added with matrigel at a volume ratio of 1:1) were subcutaneously inoculated on the right back of each mouse. The mice were administered in groups when the average tumor volume reached about 137 mm^3. Tumor diameters were measured twice a week with vernier calipers. The tumor volume was calculated by the formula V = 0.5 a × b^2, where a and b represent the long and short diameters of the tumor, respectively.

[3] = Liver microsome metabolic stability test, rat; format: in vitro ADME; conditions: for half-life: liver microsomes, 0.5 mg/mL protein, read-out: T½
Description: (§1) 1: To the sample wells of T0, T5, T10, T20, T30, T60 and NCF60, 10 µL of the test or reference working solution and 80 µL of microsome working solution (hepatic microsome with a protein concentration of 0.5 mg/mL) were added, and to Blank60 well, only the microsome working solution was added. Then samples of the Blank60, T5, T10, T20, T30 and T60 other than T0 and NCF60 were placed in a 37° C. water bath and pre-incubated for about 10 min.
(§2) 2: To the T0 sample well, 300 µL of stop solution (containing 200 ng/mL tolbutamide and 200 ng/mL labetalol in acetonitrile solution) was added first, followed by 10 µL of NADPH regeneration system working solution.
(§3) 3: After the pre-incubation of Blank60, T5, T10, T20, T30 and T60 incubation plates, 10 µL of NADPH regeneration system working solution was added to each sample well to start the reaction, and 10 µL of 100 mM potassium phosphate buffer was added to the NCF60 sample well.
(§4) 4: After incubation for an appropriate time (such as 5, 10, 20, 30 and 60 min), to each test sample well and control well of the Blank60, T5, T10, T20, T30, T60 and NCF60 plates, 300 µL of stop solution was added to terminate the reaction.
(§5) 5: All sample plates were shaken to mix well and centrifuged at 4000 rpm for 20 min, and 100 µL of the supernatant of the test sample or control sample was taken and diluted with 300 µL of pure water for LC-MS/MS analysis.
(§6) 6: Data analysis: T½ and CLint(mic) (µL/min/mg) values were calculated according to the first-order elimination kinetics. The first-order elimination kinetics equation was: […]

BTK wild-type kinase = BTK wild-type kinase (Homo sapiens (Human), UniProt Q06187); experiment: BTK kinase activity inhibition test in vitro (Caliper EZ Reader); format: biochemical
Chain of BTK wild-type kinase (Q06187 whole entry): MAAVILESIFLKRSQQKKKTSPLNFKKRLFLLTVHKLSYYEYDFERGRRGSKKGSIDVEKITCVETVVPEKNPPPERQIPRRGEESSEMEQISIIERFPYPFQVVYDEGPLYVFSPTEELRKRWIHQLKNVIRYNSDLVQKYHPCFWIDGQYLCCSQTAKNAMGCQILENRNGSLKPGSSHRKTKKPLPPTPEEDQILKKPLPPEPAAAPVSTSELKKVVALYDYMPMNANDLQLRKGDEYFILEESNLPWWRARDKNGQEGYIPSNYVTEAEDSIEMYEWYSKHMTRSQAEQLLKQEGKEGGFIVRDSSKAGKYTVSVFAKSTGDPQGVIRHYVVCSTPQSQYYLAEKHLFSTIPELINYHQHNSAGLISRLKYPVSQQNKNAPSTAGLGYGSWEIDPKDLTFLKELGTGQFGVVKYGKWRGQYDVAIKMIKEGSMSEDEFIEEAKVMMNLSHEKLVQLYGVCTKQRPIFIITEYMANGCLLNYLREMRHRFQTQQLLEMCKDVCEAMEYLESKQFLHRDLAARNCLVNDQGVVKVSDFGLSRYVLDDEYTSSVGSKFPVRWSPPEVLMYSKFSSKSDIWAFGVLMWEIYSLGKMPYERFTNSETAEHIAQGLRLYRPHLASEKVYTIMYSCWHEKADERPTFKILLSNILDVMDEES
Summary of the method: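 Compound (10 mM DMSO stock) preincubated with kinase 10 min at room temperature, then ATP plus kinase substrate 2 added, 10 min reaction at room temperature before stop. Substrate conversion read by Caliper mobility shift; inhibition normalised to no-enzyme and no-compound controls, IC50 by variable-slope log(inhibitor) fit.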

[4] = Liver microsome metabolic stability test, human; format: in vitro ADME; conditions: for half-life: liver microsomes, 0.5 mg/mL protein, read-out: T½
Description: as §1, §2, §3, §4, §5, §6

[5] = target: BTK mutation-type C481S kinase (Homo sapiens (Human), UniProt Q06187, C481S); experiment: BTK-C481S kinase activity inhibition test in vitro (Caliper EZ Reader); format: biochemical
Chain of BTK mutation-type C481S kinase (Q06187 whole entry C481S): as the sequence (Q06187 whole entry) above, with C481S counted along it
Description: In the tests on the activity of inhibiting BTK and HER2 kinase in vitro in the examples of the present disclosure, powder of the compound was dissolved in 100% DMSO to prepare a 10 mM stock solution and stored at-20° C. in the dark. […] In addition, the compounds were subjected to experiments such as liver microsome metabolic stability, rat PK, rat brain penetration rate, and drug efficacy model in the examples of the present disclosure.
Compound powders were dissolved in 100% DMSO to make 10 mM stock solutions, which were stored at -20° C. in the dark.
2: Kinase Reaction Process
(1) Preparation of 1 × Kinase buffer.
(5) After centrifugation at 1000 rpm for 30 seconds, the reaction plate was shaken to mix well and incubated at room temperature for 10 min.
(6) A 5/3-fold final concentration of a mixed solution of ATP and Kinase substrate 2 was prepared with 1 × Kinase buffer.
(7) 15 µL of the mixed solution of ATP and substrate with 5/3-fold final concentration was added to start the reaction.
(8) The 384-well plate was centrifuged at 1000 rpm for 30 seconds, shaken to mix well, and incubated at room temperature for 10 min.
(9) 30 µL of a stop solution was added to stop the kinase reaction, and after centrifugation at 1000 rpm for 30 seconds, the plate was shaken to mix well;
(10) The conversion rate was read with Caliper EZ Reader.
where Conversion%_sample indicates the conversion rate reading of the sample; Conversion%_min is the average reading of the negative control wells, representing the conversion rate reading of the wells without enzyme activity; Conversion%_max is the average reading of the ratio of the positive control wells, representing the conversion rate reading of the wells without compound inhibition.
Dose-Response Curve Fitting
With the log value of the concentration as the X-axis, and the percentage inhibition rate as the Y-axis, the dose-effect curve was fitted using the log(inhibitor) vs. response-Variable slope of the analysis software GraphPad Prism 5, so as to determine the IC50 value of each compound on the enzyme activity.
The calculation formula was: […]

[6] = Blood-brain barrier permeability test, SD rats (plasma, cerebrospinal fluid, brain tissue); format: in vivo; conditions: oral single dose 10 mg/kg
Description: Test Example 6: Blood-brain Barrier Permeability Test
Each test compound was administered orally at a single dose of 10 mg/kg to SD rats for pharmacokinetic study. Each group included 9 rats. The test compound was dissolved in 5% DMSO+10% solutol+85% saline, vortexed for 1-2 min, and ultrasonicated for 5-10 min to prepare into a colorless, transparent and clear administration solution. Animals were fasted overnight before administration. 1 h, 2 h, and 4 h after administration, three SD rats were selected from each group to take about 0.2-0.3 mL of blood through their orbit. The blood sample was placed on ice once collected, and centrifuged to separate the plasma within 15 min (centrifugation conditions: 8000 rpm, 1 min, room temperature). The collected plasma was stored at -20° C. before analysis. Immediately after blood collection, the cerebrospinal fluid and brain tissue were collected. The cerebrospinal fluid was draw out by dural puncture with a micro-sampler syringe under direct vision. Namely, about 100 µl of cerebrospinal fluid was collected with a 100 µl micro sample syringe from the rat that was anesthetized by chloral hydrate, with the head-fixed, the back hair-cut off, a transverse incision (2 cm) made at the line connecting the roots of the two ears, and the muscle layer of the neck and skull base bluntly scraped to expose the foramen magnum. The cerebrospinal fluid was stored at -20° C. before analysis. The rat then was sacrificed immediately, with its head cut off. The dissected brain tissue, with the surface capillaries peeled off, was weighed, added with 3 times the amount of cold saline, homogenized by a homogenizer for 1 min, and stored at -20° C. before analysis. 20 µL of plasma sample and brain homogenate sample was respectively added into 200 µL of working internal standard solution (the same volume of vehicle was added to the blank instead of internal standard), vortexed for 1 min, and centrifuged at 13500 rpm for 10 min. 100 µL of the supernatant was taken and analyzed by LC-MS/MS. 20 µL of the cerebrospinal fluid was added into 60 µL of working internal standard solution (the same volume of vehicle, instead of internal standard, was added to the blank), vortexed for 1 min, and centrifuged at 13500 rpm for 10 min. 50 µL of the supernatant was taken and analyzed by LC-MS/MS.

[7] = tested on: relapsed/refractory central nervous system lymphoma; conditions: cited from earlier work; for ORR / PFS: patients
[8] = tested on: DOHH-2-luc tumor cells in the mouse brain; experiment: DOHH-2-Luc intracerebral tumor drug efficacy model test; format: in vivo; conditions: DOHH-2-Luc intracerebral model, same dose, FIG. 4
Description: Test Example 8: DOHH-2-Luc Intracerebral Tumor Drug Efficacy Model Test
DOHH-2-luc tumor cells were cultured in vitro with RPMI 1640 medium containing 10% fetal bovine serum and 500 ng/mL puromycin in a 37° C., 5% CO2 incubator. […] Tumor cells in logarithmic growth phase were used for inoculation of tumors in vivo.
2. Inoculation of Tumor Cell and Grouping
After the animal was anesthetized by intramuscular injection of Zoletil, it was fixed on the operating table in a prone position. The skin on the top of the head was disinfected with iodine and 75% alcohol respectively, and the skin was cut about 0.5 cm along the midline of the head to expose the coronal and sagittal lines. Being located about 0.5-1.0 mm above the coronal line and about 2 mm to the right of the sagittal line by using a brain locator, a hole was drilled with a 1 mL syringe needle. The micro-injector was inserted vertically to a depth of 3 mm at the location, slowly (about 1 min) injected with 3 × 10^5 DOHH-2-luc tumor cells /2 µL suspension and kept for 1 min. After pulling out the needle, the needle hole was quickly sealed with bone wax, and the wound was sutured with a stapler. About the 7th day after tumor inoculation, the animals were randomly divided into 5 groups according to the body weight of the animals and the optical signal intensity of the tumor site, with 5 animals in each group.
The mice were imaged 1-2 times a week according to their state using the small animal in vivo imaging system IVIS Lumina III (Perkin Elmer). The bioluminescence imaging (BLI, unit: photons/s) signal intensity at the tumor cell inoculation site of mouse was monitored as the main indicator for evaluating tumor growth and drug efficacy. The specific operation is as follows:
The mice were intraperitoneally injected with D-luciferin (15 mg/mL, 5 µL/g according to the body weight of the experimental animal), and then inhaled anesthetized with 1%-2% isoflurane. 10 min after the injection of D-luciferin, the animals were imaged with IVIS Lumina III. The data were analyzed and processed using Living Image software (Perkin Elmer), and the optical signal intensity in ROI (regions of interest) of each animal was calculated.

Row | Cl [1] | AUC(0-inf) [1] | Cmax [1] | half-life [1] | %Remaining (60 min) [3] | half-life [3] | IC50 (BTK wild-type kinase) | %Remaining (60 min) [4] | half-life [4] | IC50 [5] | SMILES | also measured
1 | 20.53 mL/min/kg | 8120 ng·h/mL | 2980 ng/mL | 1.16 h | 61.0% | 1.47 h | < 5 nM | 100.4% | > 2.42 h | < 5 nM | COc1cccc(Oc2ccc(-c3nc(C4CCC(CO)OC4)n4ccnc(N)c34)cc2)c1C#N (single isomer, unassigned) [Compound 89-P1] | inhibitory effect against the tumor compared with ARQ-531 and ibrutinib [2]: significantly better inhibitory effect against the tumor
2 | 64.75 mL/min/kg | 2580 ng·h/mL | 1220 ng/mL | 1.87 h | 39.1% | 0.782 h | < 5 nM | 66.3% | 1.76 h | < 5 nM | Nc1nccn2c(C3CCC(CO)OC3)nc(-c3ccc(Cc4ccccc4)cc3)c12 (stereo not drawn) [Compound 106] | –
3 | 17.83 mL/min/kg | 9630 ng·h/mL | 1780 ng/mL | 3.15 h | 46% | 0.887 h | < 5 nM | 73.5% | 2.12 h | < 5 nM | Nc1nccn2c(C3CCC(CO)OC3)nc(-c3ccc(C(F)(F)c4ccccc4)cc3)c12 (stereo not drawn) [Compound 111] | –
4 | – | – | – | – | – | – | – | – | – | – | Nc1nccn2c(C34CCC(CO)(CC3)OC4)nc(-c3ccc(C(F)(F)c4cccc(F)c4Cl)cc3)c12 [Compound 146] | Brain tissue/plasma ([6]; 1 h): 78%; Cerebrospinal fluid/plasma ([6]; 1 h): 7.2%; Drug concentration in brain tissue ([6]; 1 h): 296 ng/g; Drug concentration in cerebrospinal fluid ([6]; 1 h): 27.4 ng/mL; Plasma drug concentration ([6]; 1 h): 380 ng/mL; Brain tissue/plasma ([6]; 4 h): 110%; Cerebrospinal fluid/plasma ([6]; 4 h): 9.2%; Drug concentration in brain tissue ([6]; 4 h): 410 ng/g; Drug concentration in cerebrospinal fluid ([6]; 4 h): 34.3 ng/mL; Plasma drug concentration ([6]; 4 h): 373 ng/mL
5 | 189.92 mL/min/kg | 965 ng·h/mL | 920 ng/mL | 0.33 h | 37.0% | 0.702 h | – | 66.3% | 1.77 h | – | CC#CC(=O)N1CC[C@@H](n2c(=O)n(-c3ccc(Oc4ccccc4)cc3)c3c(N)ncnc32)C1 [Tirabrutinib, reference compound] | ORR ([7]; 320 mg QD): 60%; PFS ([7]; 320 mg QD): 2.1 months; ORR ([7]; 480 mg QD (fasting condition)): 52.9%; PFS ([7]; 480 mg QD (fasting condition)): 5.8 months; ORR ([7]; 480 mg QD): 100%; PFS ([7]; 480 mg QD): 11.1 months; tumor size in the brain by fluorescence image [8]: large red areas
6 | – | – | – | – | – | – | – | – | – | – | CC#CC(=O)N1CC[C@@H](n2c(=O)n(-c3ccc(Oc4ccccc4)cc3)c3c(N)ncnc32)C1 [Velexbru, Tirabrutinib hydrochloride] | patients who achieved effective remission ([7]; relapsed or refractory PCNSL patients): 52.9%
